From EP0590919A1, “Therapeutic agents for parkinson's disease” (KYOWA HAKKO KOGYO CO., LTD., priority 1992, dated 1994) come the findings set out here.

For data set [1], the target named is T1, A₂ receptor (Rattus norvegicus, UniProt P30543).
T1 construct: from tissue; host or cells: rat corpus striatum membrane preparation
As to the kind of experiment: Adenosine A₂ receptor binding test (³H-CGS 21680 binding). The conditions noted are these: [^3H]CGS 21680 was used, rat corpus striatum, read-out: A2 Receptor Inhibition (%); for inhibition at 1 µM: 10^-6M; for inhibition at 0.1 µM: 10^-7M. How it is done:
(§1) The similar procedure as in the above-described adenosine A₁ receptor binding test was repeated using rat corpus striatum to obtain the final precipitate of the tissue thereof. The precipitate was suspended in 50 mM Tris HCl buffer containing 10 mM magnesium chloride and 0.02 unit/mg tissue of adenosine deaminase (manufactured by Sigma Co.) to give a tissue concentration of 5 mg (wet weight)/ml.
The similar procedure as above was repeated to determine the radioactivity bound to the A₂ receptors using 50 µl of CGS 21680 labeled with tritium [³H-2-[p-(2-carboxyethyl)-phenethylamino]-5'-(N-ethylcarboxamide)adenosine: 40 Ci/mmol, manufactured by New England Nuclear Co. (J. Pharmacol. Exp. Ther., 251, 888 (1989)] (final concentration: 4.0 nM) in place of 50 µl of the mixture of N-ethylcarboxamidoadenosine labeled with tritium (³H-NECA: 26 Ci/mmol, manufactured by Amersham Co.) (final concentration: 3.8 nM) and cyclopentyladenosine (CPA, manufactured by Sigma Co.) (final concentration: 50 nM).
The inhibition rate of the test compound against the binding of A₂ receptors (³H-CGS 21680 binding) was calculated by the following equation: [formula] [Notes] • 1. "B" means the amount of radioactivity of ³H-CGS 21680 bound in the presence of a test compound at a concentration shown in Table 4. • 2. "T" means the amount of radioactivity of ³H-CGS 21680 bound in the absence of a test compound. • 3. "N" means the amount of radioactivity of ³H-CGS 21680 bound in the presence of 100 µM CPA.

In data set [2] the test system is Haloperidol-Induced Catalepsy. The data set is described as follows: Effect on haloperidol-induced catalepsy. Type of data set: in vivo, mice. As to conditions: 10 mg/kg orally; for Number of the Animals Showing Remission: of five mice, catalepsy score not more than 4 points; for Remission Rate (%): rate of decrease in total score based on control group; for Total Score: total catalepsy score of five mice (25 points at the full), haloperidol 1.0 mg/kg i.p. Summed up:
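Mice got haloperidol 1.0 mg/kg i.p. in 0.3% CMC, then test compounds orally 1 hr later in 0.3% CMC or Tween 80/water. Catalepsy was scored on a 4.5 cm-high bar 1 hr after dosing; remission meant score ≤4 points. ED₅₀ came from Probit analysis.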

The test system of a further data set is dd-strain male mice. As to the kind of experiment: Acute toxicity test (minimum lethal dose, oral). Type of data set: in vivo. As to conditions: oral administration, three mice per group, mortality seven days after administration. The protocol: Test compounds were orally administered to groups of dd-strain male mice weighing 20 ± 1 g, each group consisting of three mice. Seven days after the administration, minimum lethal dose (MLD) of each compound was determined by observing the mortality.

For data set [3], the target named is T1, A₂ receptor. As to the kind of experiment: Adenosine A₂ receptor binding test (³H-NECA binding). How it is done:
as §1
The mixture solution was allowed to stand at 25°C for 120 minutes and then treated in the same manner as in the adenosine A₁ receptor binding test to determine the radioactivity bound to the A₂ receptors.
The inhibition rate of the test compound against the binding of A₂ receptor (³H-NECA binding) was calculated by the following equation: [formula] [Notes] • 1.

The next data set addresses T2, A₁ receptor (Cavia porcellus, UniProt P47745).
T2 construct: from tissue; host or cells: guinea pig cerebrum membrane preparation
T2 sequence (P47745 1-326): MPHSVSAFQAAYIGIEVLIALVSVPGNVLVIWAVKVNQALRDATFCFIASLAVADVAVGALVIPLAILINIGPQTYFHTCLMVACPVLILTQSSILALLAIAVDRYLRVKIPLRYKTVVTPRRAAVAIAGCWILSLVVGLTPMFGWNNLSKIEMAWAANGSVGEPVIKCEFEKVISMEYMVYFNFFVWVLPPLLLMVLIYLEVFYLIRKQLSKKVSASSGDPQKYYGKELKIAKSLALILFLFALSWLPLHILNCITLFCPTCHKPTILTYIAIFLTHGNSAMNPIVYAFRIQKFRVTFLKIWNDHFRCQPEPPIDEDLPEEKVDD
The data set is described as follows: Adenosine A₁ receptor binding test (³H-CHA binding). Also on record: species or system guinea pig. The protocol: Cerebrum of a guinea pig was suspended in ice-cooled 50 mM Tris hydroxymethyl aminomethane hydrochloride (Tris HCl) buffer (pH 7.7) by using Polytron homogenizer (manufactured by […] Co.). […] The suspension was centrifuged under the same conditions, and the final precipitate was suspended once again in 50 mM Tris HCl buffer to give a tissue concentration of 100 mg (wet weight)/ml. The tissue suspension was incubated at 37°C for 30 minutes in the presence of 0.02 unit/mg tissue of adenosine deaminase (manufactured by Sigma Co.). The tissue suspension was then centrifuged (50,000 x g, 10 minutes), and 50 mM Tris HCl buffer was added to the precipitate to adjust the concentration of tissue to 10 mg (wet weight)/ml. […] The mixture solution was allowed to stand at 25°C for 90 minutes and then rapidly filtered by suction through a glass fiber filter (GF/C manufactured by Whatman Co.). […] The radioactivity on the filter was determined with a liquid scintillation counter (manufactured by Packard Instrument Co.). […] The inhibition constant (Ki value) shown in the table was calculated by the Cheng-Prusoff's equation.

Setting [4] is: read-out: Inhibition (%) A₂ Receptor.

T1 sequence (P30543 whole entry): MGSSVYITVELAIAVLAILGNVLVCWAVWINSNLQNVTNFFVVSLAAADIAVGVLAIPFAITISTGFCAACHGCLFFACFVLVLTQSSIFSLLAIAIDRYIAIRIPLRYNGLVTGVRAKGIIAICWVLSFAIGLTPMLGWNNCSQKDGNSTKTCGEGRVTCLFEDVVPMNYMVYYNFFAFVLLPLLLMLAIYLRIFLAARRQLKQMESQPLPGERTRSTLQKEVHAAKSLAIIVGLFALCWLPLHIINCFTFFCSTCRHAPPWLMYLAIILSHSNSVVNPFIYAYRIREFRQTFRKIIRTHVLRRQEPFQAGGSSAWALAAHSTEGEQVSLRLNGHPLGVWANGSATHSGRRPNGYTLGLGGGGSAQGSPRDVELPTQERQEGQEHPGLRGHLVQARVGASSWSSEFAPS

Usually inhibition stands for the drop in the measured response relative to a control, in per cent. For the molecule `CCn1c(=O)c2c(nc(/C=C/c3cccc([N+](=O)[O-])c3)n2C)n(CC)c1=O` [Compound 90, (E)-1,3-Diethyl-7-methyl-8-(3-nitrostyryl)xanthine], on A₂ receptor [1], the inhibition at 1 µM was 94% and the inhibition at 0.1 µM came out at 85%. For the same molecule, in data set [2], the “Number of the Animals Showing Remission” value stood at 4, the “Remission Rate (%)” value came to 44% and the “Total Score” value came out at 14. Besides, the MLD in the data set with dd-strain male mice is given as over 100 mg/kg.
By Ki is commonly meant a measure of affinity in units of concentration, obtained from inhibition or displacement. Higher therefore signals a looser hold on the target. Turning to `CCn1c(=O)c2[nH]c(/C=C/c3ccc(OC)c(C)c3C)nc2n(CC)c1=O` [Compound 9, (E)-1,3-Diethyl-8-(4-methoxy-2,3-dimethylstyryl)xanthine], on A₂ receptor [3] (ratio of Ki values A₁/A₂), the “Ratio (A₁/A₂)” value was > 32,000. In addition, on A₂ receptor [3] (setting [4]), the inhibition at 0.1 µM was 79%, the inhibition at 1 µM was determined as 84%, the inhibition at 10 µM turned out to be 73% and the inhibition at 100 µM came out at 86%. The Ki on A₂ receptor [3] (³H-NECA binding) worked out at 3.1 nM. The molecule further yielded an MLD with dd-strain male mice of over 300 mg/kg. Further, the inhibition at 100 µM at A₁ receptor (10⁻⁴M, guinea pig cerebrum) was found to be 26%. Moreover, on A₁ receptor (10⁻⁵M, guinea pig cerebrum), the inhibition at 10 µM was found to be 14%. Further, the inhibition constant (Ki) at A₁ receptor (Cheng-Prusoff's equation) is over 100000 nM.
As for `CCn1c(=O)c2c(nc(/C=C/c3ccc(O)cc3)n2C)n(CC)c1=O` [Compound 112, (E)-1,3-Diethyl-8-(4-hydroxystyryl)-7-methylxanthine], on A₂ receptor [1], the inhibition at 1 µM turned out to be 95% and the inhibition at 0.1 µM amounted to 79%. Besides, in data set [2], the “Number of the Animals Showing Remission” value turned out to be 5, the “Remission Rate (%)” value is 84% and the “Total Score” value was found to be 4. For the same molecule, the MLD in the data set with dd-strain male mice is listed as over 100 mg/kg.
`CCn1c(=O)c2c(nc(/C=C/c3cc(C(F)(F)F)cc(C(F)(F)F)c3)n2C)n(CC)c1=O` [Compound 86, (E)-8-[3,5-Bis(trifluoromethyl)styryl]-1,3-diethyl-7-methylxanthine]: at A₂ receptor [1], the inhibition at 1 µM amounted to 73% and the inhibition at 0.1 µM is 29%. In data set [2], the “Number of the Animals Showing Remission” value is 3, the “Remission Rate (%)” value was 36% and the “Total Score” value is 16. Besides, the MLD in the data set with dd-strain male mice was over 100 mg/kg.
`CCn1c(=O)c2c(nc(/C=C/c3ccc(Br)cc3)n2C)n(CC)c1=O` [Compound 78, (E)-8-(4-Bromostyryl)-1,3-diethyl-7-methylxanthine]: on A₂ receptor [1], the inhibition at 1 µM was 89% and the inhibition at 0.1 µM was found to be 68%. For the same molecule, in data set [2], the “Number of the Animals Showing Remission” value was 3, the “Remission Rate (%)” value is 28% and the “Total Score” value amounted to 18. Moreover, the MLD in the data set with dd-strain male mice is given as over 100 mg/kg.
As for `CCn1c(=O)c2c(nc(/C=C/c3ccc(OCc4ccccc4)cc3)n2C)n(CC)c1=O` [Compound 113, (E)-8-(4-Benzyloxystyryl)-1,3-diethyl-7-methylxanthine], on A₂ receptor [1], the inhibition at 1 µM was 68% and the inhibition at 0.1 µM came out at 34%. In addition, in data set [2], the “Number of the Animals Showing Remission” value is 3, the “Remission Rate (%)” value came to 24% and the “Total Score” value came to 19. In the data set on dd-strain male mice, this molecule gave an MLD of over 100 mg/kg.
For `CCn1c(=O)c2c(nc(/C=C/c3ccc(OCOC)cc3)n2C)n(CC)c1=O` [Compound 82, (E)-1,3-Diethyl-8-(4-methoxymethoxystyryl)-7-methylxanthine], at A₂ receptor [1], the inhibition at 1 µM was determined as 98% and the inhibition at 0.1 µM amounted to 86%. Moreover, in data set [2], the “Number of the Animals Showing Remission” value came out at 5, the “Remission Rate (%)” value worked out at 64% and the “Total Score” value was found to be 9. In addition, in the data set with dd-strain male mice, the MLD is over 100 mg/kg.
As to `CCn1c(=O)c2c(nc(/C=C/c3ccc(F)cc3)n2C)n(CC)c1=O` [Compound 84, (E)-1,3-Diethyl-8-(4-fluorostyryl)-7-methylxanthine], at A₂ receptor [1], the inhibition at 1 µM stood at 100% and the inhibition at 0.1 µM stood at 82%. For the same molecule, in data set [2], the “Number of the Animals Showing Remission” value is listed as 4, the “Remission Rate (%)” value is 32% and the “Total Score” value was 17. Moreover, the MLD in the data set on dd-strain male mice is on record as over 100 mg/kg.
Take `CCn1c(=O)c2c(nc(/C=C/c3cccc(F)c3C)n2C)n(CC)c1=O` [Compound 109, (E)-1,3-Diethyl-8-(3-fluoro-2-methylstyryl)-7-methylxanthine]: on A₂ receptor [1], the inhibition at 1 µM came to 96% and the inhibition at 0.1 µM is 97%. Further, in data set [2], the “Number of the Animals Showing Remission” value was 5, the “Remission Rate (%)” value worked out at 84% and the “Total Score” value was 4. The MLD with dd-strain male mice is over 100 mg/kg.
As to `CCn1c(=O)c2c(nc(/C=C/c3cccc(Br)c3)n2C)n(CC)c1=O` [Compound 92, (E)-8-(3-Bromostyryl)-1,3-diethyl-7-methylxanthine], at A₂ receptor [1], the inhibition at 1 µM was determined as 103% and the inhibition at 0.1 µM amounted to 93%. Moreover, in data set [2], the “Number of the Animals Showing Remission” value worked out at 4, the “Remission Rate (%)” value stood at 52% and the “Total Score” value worked out at 12. The molecule also returned an MLD in the data set with dd-strain male mice of over 100 mg/kg.
With `CCn1c(=O)c2c(nc(/C=C/c3cccc(OC)c3)n2C)n(CC)c1=O` [Compound 40, (E)-1,3-Diethyl-8-(3-methoxystyryl)-7-methylxanthine], at A₂ receptor [1], the inhibition at 1 µM worked out at 98% and the inhibition at 0.1 µM turned out to be 88%. In data set [2], the “Number of the Animals Showing Remission” value is 5, the “Remission Rate (%)” value was 88% and the “Total Score” value came to 3. Further, in the data set with dd-strain male mice, the MLD is reported as over 300 mg/kg.
Take `CCn1c(=O)c2c(nc(/C=C/c3ccc(O)c(O)c3)n2C)n(CC)c1=O` [Compound 110, (E)-8-(3,4-Dihydroxystyryl)-1,3-diethyl-7-methylxanthine]: on A₂ receptor [1], the inhibition at 1 µM is 96% and the inhibition at 0.1 µM turned out to be 61%. Besides, in data set [2], the “Number of the Animals Showing Remission” value is 3, the “Remission Rate (%)” value is listed as 20% and the “Total Score” value stood at 20. This molecule registered an MLD with dd-strain male mice of over 100 mg/kg.
As to `CCn1c(=O)c2c(nc(/C=C/c3cccc(OC)c3[N+](=O)[O-])n2C)n(CC)c1=O` [Compound 64, (E)-1,3-Diethyl-8-(3-methoxy-2-nitrostyryl)-7-methylxanthine], on A₂ receptor [1], the inhibition at 1 µM was found to be 94% and the inhibition at 0.1 µM worked out at 89%. Also, in data set [2], the “Number of the Animals Showing Remission” value turned out to be 4, the “Remission Rate (%)” value was 36% and the “Total Score” value was 16. In the data set on dd-strain male mice, this molecule registered an MLD of over 100 mg/kg.
